According to US20220024921A1, “1,3,4-OXADIAZOLONE COMPOUND AND PHARMACEUTICAL” (NIPPON SHINYAKU CO., LTD., priority 2018, published 2022):
Counter-ions that a name gives are not always drawn.

How the values were obtained:
[1] = biological target: T1, PIM1 serine/threonine kinase (Homo sapiens, UniProt P11309); experiment: PIM1 serine/threonine kinase inhibitory effect; type: biochemical; details: PIM1 serine/threonine kinase activity; ATP 40 μM; 30° C., 30 minutes
T1 construct: purchased Carna Bioscience, Inc
Method in brief: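 Compounds were tested in duplicate from 0.01 to 10000 nM final against PIM1 kinase (0.15 μg/ml). The reaction ran for 30 minutes at 30° C with 40 μM ATP and 0.5 μM biotin-tagged substrate at pH 7.0. Phosphorylation was read by time-resolved FRET (OD665/OD620) after 1 h; IC50 by non-linear fit.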

[2] = biological target: PIM1 transgenic cells (Ba/F3) (Homo sapiens, UniProt P11309); experiment: Proliferation inhibitory effect on PIM1 transgenic cells; type: cell-based, mouse; details: proliferation inhibition, 72 hours, Cell Counting Kit-8, read-out: PIM1 IC50
Method in brief: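 Mouse Ba/F3 pro-B cells were retrovirally transduced with human PIM1 so that their proliferation depends on PIM1. Cells were treated with compound at 1–10000 nM final for 72 h, then read by CCK-8 (OD450−OD650). Inhibition was set against DMSO (0%) and no-cell blank (100%), and IC50 was obtained by two-parameter logistic regression.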

PIM1 transgenic cells (Ba/F3), sequence (P11309 whole entry, stated change not applied): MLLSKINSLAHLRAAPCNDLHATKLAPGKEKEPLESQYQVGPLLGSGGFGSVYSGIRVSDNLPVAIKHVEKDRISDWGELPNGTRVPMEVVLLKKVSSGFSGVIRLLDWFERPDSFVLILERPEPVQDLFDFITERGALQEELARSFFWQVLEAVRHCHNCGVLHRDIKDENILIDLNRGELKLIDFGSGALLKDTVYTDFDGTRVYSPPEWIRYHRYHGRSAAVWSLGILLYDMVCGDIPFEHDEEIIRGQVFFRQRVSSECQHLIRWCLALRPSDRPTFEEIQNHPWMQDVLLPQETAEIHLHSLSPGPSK
T1 sequence (P11309 whole entry): as the sequence (P11309 whole entry, stated change not applied) above

IC50 [1] [nM] | GI50 [2] [nM] | Compound
6.1 | 110 | C[C@@H]1CNCC[C@@H]1[C@H](C)Nc1cc(-c2n[nH]c(=O)o2)ccc1OC(F)F [Example 220, 5-[4-(difluoromethoxy)-3-({(1S)-1-[(3S,4S)-3-methylpiperidin-4-yl]ethyl}amino)phenyl]-1,3,4-oxadiazol-2(3H)-one]
12 | 260 | C[C@H]1CN([C@@H](C)C2CCNCC2)c2cc(-c3n[nH]c(=O)o3)cc(F)c2O1 [Example 251, 5-{(2S)-8-fluoro-2-methyl-4-[(1S)-1-(piperidin-4-yl)ethyl]-3,4-dihydro-2H-1,4-benzoxazin-6-yl}-1,3,4-oxadiazol-2(3H)-one]
8.4 | 140 | Cc1cc(Cl)c(N[C@@H](C)C2CCNCC2)cc1-c1n[nH]c(=O)o1 [Example 94, 5-(4-chloro-2-methyl-5-{[(1S)-1-(piperidin-4-yl)ethyl]amino}phenyl)-1,3,4-oxadiazol-2(3H)-one hydrochloride]
4.1 | 57 | O=c1[nH]nc(-c2ccc(C(F)(F)F)c(N[C@@H](C(F)F)C3(F)CCNCC3)c2)o1 [Example 140, 5-[3-{[(1R)-2,2-difluoro-1-(4-fluoropiperidin-4-yl)ethyl]amino}-4-(trifluoromethyl)phenyl]-1,3,4-oxadiazol-2(3H)-one hydrochloride]
2.3 | 26 | CC1(C)[C@H](CNc2cc(-c3n[nH]c(=O)o3)ccc2C(F)(F)F)C[C@@H]1N [Example 166, 5-[3-({[(1R,3S)-3-amino-2,2-dimethylcyclobutyl]methyl}amino)-4-(trifluoromethyl)phenyl]-1,3,4-oxadiazol-2(3H)-one hydrochloride]
3.9 | 97 | Cc1c(F)cc(-c2n[nH]c(=O)o2)cc1N[C@@H](C)C1CCNCC1 [Example 99, 5-(3-fluoro-4-methyl-5-{[(1S)-1-(piperidin-4-yl)ethyl]amino}phenyl)-1,3,4-oxadiazol-2(3H)-one dihydrochloride]
11 | 7900 | NCCCCCNc1cc(-c2n[nH]c(=O)o2)ccc1C(F)(F)F [Example 3, 5-{3-[(5-aminopentyl)amino]-4-(trifluoromethyl)phenyl}-1,3,4-oxadiazol-2(3H)-one hydrochloride]
1.8 | 17 | C[C@H](Nc1cc(-c2n[nH]c(=O)o2)cc(F)c1OC(F)(F)F)[C@H]1CC[C@H](N)CC1 [Example 170, 5-[3-({(1S)-1-[(1r,4S)-4-aminocyclohexyl]ethyl}amino)-5-fluoro-4-(trifluoromethoxy)phenyl]-1,3,4-oxadiazol-2(3H)-one hydrochloride]
4.3 | 4200 | O=c1[nH]nc(-c2cc(NCC3(F)CCNCC3)c3cn[nH]c3c2)o1 [Example 116, 5-(4-{[(4-fluoropiperidin-4-yl)methyl]amino}-1H-indazol-6-yl)-1,3,4-oxadiazol-2(3H)-one hydrochloride]
3.3 | 170 | C[C@H](Nc1cc(-c2n[nH]c(=O)o2)ccc1Br)C1CCNCC1 [Example 78, 5-(4-bromo-3-{[(1S)-1-(piperidin-4-yl)ethyl]amino}phenyl)-1,3,4-oxadiazol-2(3H)-one dihydrochloride]
5.4 | 83 | CC[C@H]1CNCC[C@H]1[C@H](C)Nc1cc(-c2n[nH]c(=O)o2)cc(F)c1C(F)(F)F [Example 226, 5-[3-({(1S)-1-[(3R,4R)-3-ethylpiperidin-4-yl]ethyl}amino)-5-fluoro-4-(trifluoromethyl)phenyl]-1,3,4-oxadiazol-2(3H)-one]
2.1 | 61 | C[C@H](Nc1cc(-c2n[nH]c(=O)o2)cc(C(F)(F)F)c1Cl)C1CCNCC1 [Example 101, 5-[4-chloro-3-{[(1S)-1-(piperidin-4-yl)ethyl]amino}-5-(trifluoromethyl)phenyl]-1,3,4-oxadiazol-2(3H)-one dihydrochloride]
2.9 | 64 | C[C@H](Nc1cc(-c2n[nH]c(=O)o2)ccc1C(F)(F)F)C1(C)CCNCC1 [Example 144, 5-[3-{[(1S)-1-(4-methylpiperidin-4-yl)ethyl]amino}-4-(trifluoromethyl)phenyl]-1,3,4-oxadiazol-2(3H)-one hydrochloride]
15 | 680 | C[C@@H](C1CCNCC1)N1CCCOc2c(F)cc(-c3n[nH]c(=O)o3)cc21 [Example 254, 5-{9-fluoro-5-[(1S)-1-(piperidin-4-yl)ethyl]-2,3,4,5-tetrahydro-1,5-benzoxazepin-7-yl}-1,3,4-oxadiazol-2(3H)-one hydrochloride]
8.5 | 100 | C[C@H](Nc1cc(-c2n[nH]c(=O)o2)ccc1C(F)(F)F)[C@@H]1CC[C@H](N)C1 [Example 200, 5-[3-({(1S)-1-[(1R,3S)-3-aminocyclopentyl]ethyl}amino)-4-(trifluoromethyl)phenyl]-1,3,4-oxadiazol-2(3H)-one hydrochloride]
2.2 | 44 | CN[C@H]1CC[C@H]([C@H](C)Nc2cc(-c3n[nH]c(=O)o3)ccc2C(F)(F)F)CC1 [Example 189, 5-[3-({(1S)-1-[(1r,4S)-4-(methylamino)cyclohexyl]ethyl}amino)-4-(trifluoromethyl)phenyl]-1,3,4-oxadiazol-2(3H)-one hydrochloride]
2.6 | 120 | N[C@H]1CC[C@H](CSc2cc(-c3n[nH]c(=O)o3)ccc2C(F)(F)F)CC1 [Example 234, 5-[3-({[(1r,4r)-4-aminocyclohexyl]methyl}sulfanyl)-4-(trifluoromethyl)phenyl]-1,3,4-oxadiazol-2(3H)-one]
6.5 | 310 | C[C@H](Nc1c(F)c(-c2n[nH]c(=O)o2)cc(F)c1Cl)[C@H]1CC[C@H](N)CC1 [Example 169, 5-[3-({(1S)-1-[(1r,4S)-4-aminocyclohexyl]ethyl}amino)-4-chloro-2,5-difluorophenyl]-1,3,4-oxadiazol-2(3H)-one hydrochloride]
2.1 | 73 | C[C@H](Nc1cc(-c2n[nH]c(=O)o2)cc(F)c1OC(F)F)C1CCNCC1 [Example 212, 5-[4-(difluoromethoxy)-3-fluoro-5-{[(1S)-1-(piperidin-4-yl)ethyl]amino}phenyl]-1,3,4-oxadiazol-2(3H)-one]
4 | 73 | CC[C@H](Nc1cc(-c2n[nH]c(=O)o2)ccc1C(F)(F)F)C1CCNCC1 [Example 138, 5-[3-{[(1S)-1-(piperidin-4-yl)propyl]amino}-4-(trifluoromethyl)phenyl]-1,3,4-oxadiazol-2(3H)-one hydrochloride]
8.7 | 180 | CC(Oc1cc(-c2n[nH]c(=O)o2)ccc1Br)C1CCNCC1 (stereo not shown) [Example 236]
7.7 | 650 | O=c1[nH]nc(-c2ccc(Br)c(OCC3CCNCC3)c2)o1 [Example 235, 5-{4-bromo-3-[(piperidin-4-yl)methoxy]phenyl}-1,3,4-oxadiazol-2(3H)-one]
17 | 320 | CC(C)Oc1c(F)cc(-c2n[nH]c(=O)o2)cc1N[C@@H](C)[C@H]1CC[C@H](N)CC1 [Example 175, 5-{3-({(1S)-1-[(1r,4S)-4-aminocyclohexyl]ethyl}amino)-5-fluoro-4-[(propan-2-yl)oxy]phenyl}-1,3,4-oxadiazol-2(3H)-one dihydrochloride]
20 | 390 | O=c1[nH]nc(-c2ccc(C(F)(F)F)c(N[C@H]3CCC34CCNCC4)c2)o1 [Example 45, 5-[3-{[(1S)-7-azaspiro[3.5]nonan-1-yl]amino}-4-(trifluoromethyl)phenyl]-1,3,4-oxadiazol-2(3H)-one hydrochloride]
1.2 | 64 | C[C@H](Nc1c(F)c(-c2n[nH]c(=O)o2)cc(Cl)c1Cl)C1CCNCC1 [Example 87, 5-(4,5-dichloro-2-fluoro-3-{[(1S)-1-(piperidin-4-yl)ethyl]amino}phenyl)-1,3,4-oxadiazol-2(3H)-one hydrochloride]
2 | 28 | C=C(C)c1c(F)cc(-c2n[nH]c(=O)o2)cc1N[C@@H](C)[C@H]1CC[C@H](N)CC1 [Example 232, 5-[3-({(1S)-1-[(1r,4S)-4-aminocyclohexyl]ethyl}amino)-5-fluoro-4-(prop-1-en-2-yl)phenyl]-1,3,4-oxadiazol-2(3H)-one hydrochloride]
3 | 71 | CN[C@H]1CC[C@H](CNc2cc(-c3n[nH]c(=O)o3)ccc2C(F)(F)F)CC1 [Example 131, 5-[3-({[(1r,4r)-4-(methylamino)cyclohexyl]methyl}amino)-4-(trifluoromethyl)phenyl]-1,3,4-oxadiazol-2(3H)-one hydrochloride]
5.7 | 190 | C[C@@H]1CN([C@@H](C)C2CCNCC2)c2cc(-c3n[nH]c(=O)o3)cc(F)c2O1 [Example 250, 5-{(2R)-8-fluoro-2-methyl-4-[(1S)-1-(piperidin-4-yl)ethyl]-3,4-dihydro-2H-1,4-benzoxazin-6-yl}-1,3,4-oxadiazol-2(3H)-one]
6.2 | 730 | N[C@H]1CC[C@@H](Nc2cc(-c3n[nH]c(=O)o3)ccc2Cl)CC1 [Example 33, 5-(3-{[(1s,4s)-4-aminocyclohexyl]amino}-4-chlorophenyl)-1,3,4-oxadiazol-2(3H)-one hydrochloride]
